# Laboratory results published in the NIST ThermoML archive (doi:10.1021/je800560b).
# Where “and” joins values, the source holds several entries; their conditions need not be identical. Equal values may be shown once. ± gives the expanded uncertainty stated by the source.
# Settings: Liquid
smiles,measurement,setting,value
O=[Si] [silicon monooxide],vapor or sublimation pressure,1301 K,0.00029 ± 5e-05 kPa and 0.00016 ± 9e-05 kPa
same,vapor or sublimation pressure,1315 K,0.0004 ± 7e-05 kPa and 0.00024 ± 6e-05 kPa
same,vapor or sublimation pressure,1325 K,0.0005 ± 8e-05 kPa and 0.00032 ± 7e-05 kPa
same,vapor or sublimation pressure,1335 K,0.00064 ± 9e-05 kPa and 0.0004 ± 8e-05 kPa
same,vapor or sublimation pressure,1350 K,0.00088 ± 0.00013 kPa and 0.00089 ± 0.00014 kPa and 0.00057 ± 0.00012 kPa
same,vapor or sublimation pressure,1364 K,0.00123 ± 0.00031 kPa and 0.00082 ± 0.00021 kPa
same,vapor or sublimation pressure,1374 K,0.00155 ± 0.00038 kPa and 0.00152 ± 0.00038 kPa and 0.00103 ± 0.00027 kPa
same,vapor or sublimation pressure,1399 K,0.0026 ± 0.0007 kPa and 0.00175 ± 0.00048 kPa
same,vapor or sublimation pressure,1421 K,0.0042 ± 0.0012 kPa and 0.00287 ± 0.0008 kPa
same,vapor or sublimation pressure,1433 K,0.0054 ± 0.0016 kPa and 0.0037 ± 0.0011 kPa
same,vapor or sublimation pressure,1446 K,0.0071 ± 0.0022 kPa and 0.0048 ± 0.0016 kPa
same,vapor or sublimation pressure,1470 K,0.0116 ± 0.0037 kPa and 0.0114 ± 0.0037 kPa and 0.0079 ± 0.0026 kPa
same,vapor or sublimation pressure,1495 K,0.0185 ± 0.0063 kPa and 0.0177 ± 0.006 kPa and 0.0127 ± 0.0043 kPa
same,vapor or sublimation pressure,1519 K,0.029 ± 0.01 kPa and 0.027 ± 0.009 kPa and 0.0201 ± 0.0066 kPa
